From paper PMC10766610, “DCAF1-based PROTACs with activity against clinically validated targets overcoming intrinsic- and acquired-degrader resistance” (Nature Communications, 2024)

How the values were obtained:
BRD7 = biological target: T1, BRD7 (Homo sapiens, UniProt Q9NPI1); assay: BRD7-HiBiT protein abundance luminescence assay in HEK293 cells
T1 sequence (Q9NPI1 1-651): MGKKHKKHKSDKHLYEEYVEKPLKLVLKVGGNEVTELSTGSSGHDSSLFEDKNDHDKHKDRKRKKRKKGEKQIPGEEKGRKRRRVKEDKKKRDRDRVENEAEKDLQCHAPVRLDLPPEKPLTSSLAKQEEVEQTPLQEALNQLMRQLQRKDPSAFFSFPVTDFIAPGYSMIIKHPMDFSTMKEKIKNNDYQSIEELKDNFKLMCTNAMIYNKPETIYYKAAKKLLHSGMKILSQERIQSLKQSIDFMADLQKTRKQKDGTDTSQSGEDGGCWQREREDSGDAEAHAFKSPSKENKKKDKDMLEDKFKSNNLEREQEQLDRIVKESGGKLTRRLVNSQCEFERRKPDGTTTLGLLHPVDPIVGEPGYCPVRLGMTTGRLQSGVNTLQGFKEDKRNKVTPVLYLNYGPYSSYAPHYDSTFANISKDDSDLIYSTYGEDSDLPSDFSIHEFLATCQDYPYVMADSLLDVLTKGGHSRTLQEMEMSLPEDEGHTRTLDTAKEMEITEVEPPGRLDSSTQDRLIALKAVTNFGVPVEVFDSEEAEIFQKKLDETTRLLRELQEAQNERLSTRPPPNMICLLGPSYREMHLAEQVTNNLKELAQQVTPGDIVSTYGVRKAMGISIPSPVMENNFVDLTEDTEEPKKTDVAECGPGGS
From the text: HEK293/BRD9-HiBiT pools (PROMEGA # CS3023120) and HEK293/BRD7-HiBiT pools (PROMEGA # CS3023124) were purchased from Promega. We performed clonal selection for HEK293/BRD9-HiBiT cell line using single-cell sorting and screening for HiBiT expression using Nano-Glo HiBiT Lytic Detection System (Promega # N3030). The HEK293/BRD9-HiBiT clone and HEK293/BRD7-HiBiT pool to perform standard HiBiT assays.

ABL1 = biological target: T2, ABL1 (Homo sapiens, UniProt P00519); assay: Immunoblot of ABL1 in HEK293T cells; type: cell-based; conditions: 6 h
T2 construct: host or cells: HEK293T
T2 sequence (P00519 whole entry): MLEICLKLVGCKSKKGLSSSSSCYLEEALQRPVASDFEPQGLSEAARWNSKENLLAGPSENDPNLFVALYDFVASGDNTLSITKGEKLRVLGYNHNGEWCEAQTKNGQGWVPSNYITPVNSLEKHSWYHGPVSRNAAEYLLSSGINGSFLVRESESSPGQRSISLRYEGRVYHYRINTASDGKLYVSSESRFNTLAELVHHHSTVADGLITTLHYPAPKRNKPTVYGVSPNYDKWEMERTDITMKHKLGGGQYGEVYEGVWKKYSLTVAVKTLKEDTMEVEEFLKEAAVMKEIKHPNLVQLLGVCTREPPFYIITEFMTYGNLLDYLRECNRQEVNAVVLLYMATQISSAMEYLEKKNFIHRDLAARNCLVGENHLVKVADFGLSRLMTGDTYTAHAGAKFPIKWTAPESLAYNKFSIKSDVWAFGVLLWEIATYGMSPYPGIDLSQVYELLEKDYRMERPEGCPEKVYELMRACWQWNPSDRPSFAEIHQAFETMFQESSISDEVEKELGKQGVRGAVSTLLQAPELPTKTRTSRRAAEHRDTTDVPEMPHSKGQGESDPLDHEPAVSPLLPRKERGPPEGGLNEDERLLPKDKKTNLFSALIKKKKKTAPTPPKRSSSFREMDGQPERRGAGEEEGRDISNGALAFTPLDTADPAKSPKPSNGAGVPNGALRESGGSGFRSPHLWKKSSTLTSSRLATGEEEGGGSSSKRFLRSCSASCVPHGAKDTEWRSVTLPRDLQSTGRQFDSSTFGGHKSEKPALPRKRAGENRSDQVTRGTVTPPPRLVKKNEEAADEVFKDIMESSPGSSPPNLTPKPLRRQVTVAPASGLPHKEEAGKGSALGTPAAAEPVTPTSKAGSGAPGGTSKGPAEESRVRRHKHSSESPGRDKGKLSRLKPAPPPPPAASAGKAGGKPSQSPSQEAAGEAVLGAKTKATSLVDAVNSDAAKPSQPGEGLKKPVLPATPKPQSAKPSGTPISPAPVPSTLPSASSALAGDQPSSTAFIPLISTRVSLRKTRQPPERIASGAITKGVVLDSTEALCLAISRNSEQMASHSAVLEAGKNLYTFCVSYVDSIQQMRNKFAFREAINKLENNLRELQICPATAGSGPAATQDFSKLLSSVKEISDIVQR
Procedure: Whole cell lysates for immunoblotting were prepared by pelleting cells at 4 °C (300 g) for 3 min. Cell pellets were then washed 1x with PBS and resuspended in RIPA lysis buffer (VWR, cat # 97063-270) supplemented with protease (Thermo Scientific, cat # A32955) and phosphatase (Thermo Scientific, cat # A32957) inhibitor tablets. Lysates were clarified at 16,000 × g for 15 min at 4 °C prior to quantification by Lowry assay (Bio-Rad cat # 5000113 and cat # 5000114). Whole-cell lysates were loaded into 4–20% Criterion TGX Precast 18 well gels (Bio-Rad, cat # 5671094) and separated by electrophoreses at 120 V for 1 h. The gels were transferred to a nitrocellulose membrane using the Trans-Blot Turbo (Bio-Rad) for 7 min and then blocked for 1 h at room temperature in Odyssey blocking buffer (LICOR Biosciences, cat # 927-50000). Membranes were probed with the appropriate primary antibodies (diluted 1:1000) overnight at 4 °C in 20% Odyssey blocking buffer in 1x TBST. Membranes were washed three times with 1x TBST (5 min per wash), and then incubated with IRDye goat anti-mouse (LICOR, cat # 926-32210) or goat anti-rabbit (LICOR, cat # 926-32211) secondary antibody diluted 1:10,000 in 20% Odyssey blocking buffer for 1 h at room temperature. After three 5-min washes with 1x TBST, the immunoblots were visualized using the ODYSSEY Infrared Imaging System (LICOR). […]

BRD9 = biological target: T3, BRD9 (Homo sapiens, UniProt Q9H8M2); assay: Rescue of DBr-1 mediated BRD9 degradation by co-treatment, BRD9-HiBiT HEK293 cells; type: cell-based; set-up: host or cells: HEK293/BRD9-HiBiT knock-in; clone and BRD9-HiBiT/CAS9/FF clone; conditions: (13) 1 µM, OICR8268 10 µM, BI-9564 10 µM
T3 sequence (Q9H8M2 1-597): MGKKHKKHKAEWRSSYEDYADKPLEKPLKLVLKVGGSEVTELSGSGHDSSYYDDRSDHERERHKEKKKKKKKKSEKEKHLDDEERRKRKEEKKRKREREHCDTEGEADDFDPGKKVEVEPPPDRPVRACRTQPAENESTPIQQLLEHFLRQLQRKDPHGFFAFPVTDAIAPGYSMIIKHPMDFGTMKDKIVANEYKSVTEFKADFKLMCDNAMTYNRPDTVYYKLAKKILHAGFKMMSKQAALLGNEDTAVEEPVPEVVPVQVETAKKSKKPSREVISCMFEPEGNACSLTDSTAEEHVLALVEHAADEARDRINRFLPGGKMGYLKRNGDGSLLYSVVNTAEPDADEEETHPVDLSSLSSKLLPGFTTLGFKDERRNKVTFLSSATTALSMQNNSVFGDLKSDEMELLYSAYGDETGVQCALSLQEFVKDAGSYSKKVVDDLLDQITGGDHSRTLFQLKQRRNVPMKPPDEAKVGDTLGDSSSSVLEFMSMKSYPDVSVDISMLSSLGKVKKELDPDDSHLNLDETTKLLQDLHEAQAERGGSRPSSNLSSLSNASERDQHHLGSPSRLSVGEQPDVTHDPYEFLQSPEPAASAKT
Procedure: Supplementary figure 4. Competition experiments with DBr-1 and DBr-1-N […]
a) BRD9-HiBiT signal detection of samples pretreated with either DMSO, 10µM OICR-8268, 1µM […]
Data represents average ± standard deviation from n=3 replicates. DC50 values and […]
maximal observed degradation are shown below. […]
b) Cell titer Glow assay of BRD9 HiBiT cells. Cells pretreated with either DMSO, 10µM OICR-8268, […]
Data represents average ± standard deviation from n=3 replicates.
Source data are provided as a Source Data file

`COc1cc(-c2cn(C)c(=O)c3cnccc23)c(OC)cc1CN1CCC(OCCCCCC(=O)N2CCN(c3ccc4c(NCCN)nc(C5(c6ccc(Cl)cc6)CCCCC5)nc4c3)CC2)CC1` [DBr-1] was tested, and the “maximal observed degradation (BRD7), % in brackets” value (BRD7; 2 h) was 65% and the DC50 (BRD7; read-out: rel. DC50 (BRD7), 2 h) was 360 nM.

With `Cc1nc(Nc2ncc(C(=O)Nc3c(C)cccc3Cl)s2)cc(N2CCC(OC3CCN(CCCCCCCC(=O)N4CCN(c5ccc6c(NCCN)nc(C7(c8ccc(Cl)cc8)CCCCC7)nc6c5)CC4)CC3)CC2)n1` [DDa-1] the ABL1 protein levels (ABL1) was “not”.

For `CC(=O)N1CCN(c2ccc3c(NCCN)nc(C4(c5ccc(Cl)cc5)CCCCC4)nc3c2)CC1` [compound 13], the “effect of co-treatment on DBr-1 mediated BRD9 degradation” value (BRD9) was “did not affect the degradation efficacy of DBr-1”.
